Source: ChEMBL document CHEMBL3885861, “Open TG-GATES”

Species on record: Rattus norvegicus
Assay: Open TG-GATES - Regimen: Daily Repeat
Format: toxicity, organism-based, Sprague-Dawley
Set-up: regimen Daily Repeat, gender Male, age 6 weeks
Conditions: in vivo, po, 0 mg/kg, route gavage, dose level Control; for APTT / Bas / Eos / Fbg / Hb / Ht / Lym / MCH / MCHC / MCV / Mono / Neu / PT / Plat / RBC / Ret / WBC: tissue Blood; for KIDNEY_TOTAL: tissue Kidney; for LIVER: tissue Liver; for A/G / ALP / ALT / AST / BUN / CRE / Ca / Cl / DBIL / GLC / IP / K / LDH / Na / PL / RALB / TBIL / TC / TG / TP / gamma-GTP: tissue Plasma

SMILES: CN(CCOc1ccc(CC2SC(=O)NC2=O)cc1)c1ccccn1.O=C(O)/C=C\C(=O)O (centres undefined) [ROSIGLITAZONE MALEATE]
- TERMINAL_BW (72 h, time 3 day): 242.8 g
- APTT (72 h, time 3 day): 15.5 s
- Bas (72 h, time 3 day): 0%
- Eos (72 h, time 3 day): 1.2%
- Fbg (72 h, time 3 day): 236.8 mg/dL
- Hb (72 h, time 3 day): 13 g/dL
- Ht (72 h, time 3 day): 39.2%
- Lym (72 h, time 3 day): 76.6%
- MCH (72 h, time 3 day): 21.1 pg
- MCHC (72 h, time 3 day): 33%
- MCV (72 h, time 3 day): 63.9 fL
- Mono (72 h, time 3 day): 5.2%
- Neu (72 h, time 3 day): 17.4%
- PT (72 h, time 3 day): 11.5 s
- Plat (72 h, time 3 day): 136 x10_4/uL
- RBC (72 h, time 3 day): 615.6 x10_4/ul
- Ret (72 h, time 3 day): 6.6%
- WBC (72 h, time 3 day): 98 x10_2/uL
- KIDNEY_TOTAL (72 h, time 3 day): 0.8 g
- LIVER (72 h, time 3 day): 12.6 g
- A/G (72 h, time 3 day): 2.2
- ALP (72 h, time 3 day): 1243.6 IU/L
- ALT (72 h, time 3 day): 35.6 IU/L
- AST (72 h, time 3 day): 62.6 IU/L
- BUN (72 h, time 3 day): 14.8 mg/dL
- CRE (72 h, time 3 day): 0.2 mg/dL
- Ca (72 h, time 3 day): 11.7 mg/dL
- Cl (72 h, time 3 day): 104.2 meq/L
- DBIL (72 h, time 3 day): 0.014 mg/dL
- GLC (72 h, time 3 day): 197.6 mg/dL
- IP (72 h, time 3 day): 6.9 mg/dL
- K (72 h, time 3 day): 4.7 meq/L
- LDH (72 h, time 3 day): 96.2 IU/L
- Na (72 h, time 3 day): 140.4 meq/L
- PL (72 h, time 3 day): 154.8 mg/dL
- RALB (72 h, time 3 day): 3.9 g/dL
- TBIL (72 h, time 3 day): 0.04 mg/dL
- TC (72 h, time 3 day): 83.4 mg/dL
- TG (72 h, time 3 day): 105.8 mg/dL
- TP (72 h, time 3 day): 5.8 g/dL
- gamma-GTP (72 h, time 3 day): 0.2 IU/L
- TERMINAL_BW ([…], time 7 day): 274.1 g
- TERMINAL_BW ([…], time 14 day): 332.1 g
- TERMINAL_BW ([…], time 28 day): 412.9 g
- APTT ([…], time 7 day): 16.1 s
- Bas ([…], time 7 day): 0%
- Eos ([…], time 7 day): 1%
- Fbg ([…], time 7 day): 242.4 mg/dL
- Hb ([…], time 7 day): 13.4 g/dL
- Ht ([…], time 7 day): 40.5%
- Lym ([…], time 7 day): 82%
- MCH ([…], time 7 day): 20.8 pg
- MCHC ([…], time 7 day): 33%
- MCV ([…], time 7 day): 63 fL
- Mono ([…], time 7 day): 4.4%
- Neu ([…], time 7 day): 12.8%
- PT ([…], time 7 day): 11.7 s
- Plat ([…], time 7 day): 134.6 x10_4/uL
- RBC ([…], time 7 day): 643.8 x10_4/ul
- Ret ([…], time 7 day): 4.6%
- WBC ([…], time 7 day): 98.6 x10_2/uL
- APTT ([…], time 14 day): 15.7 s
- Bas ([…], time 14 day): 0%
- Eos ([…], time 14 day): 1%
- Fbg ([…], time 14 day): 247.4 mg/dL
- Hb ([…], time 14 day): 14 g/dL
- Ht ([…], time 14 day): 42.3%
- Lym ([…], time 14 day): 74.4%
- MCH ([…], time 14 day): 20.6 pg
- MCHC ([…], time 14 day): 33%
- MCV ([…], time 14 day): 62.2 fL
- Mono ([…], time 14 day): 6%
- Neu ([…], time 14 day): 18.6%
- PT ([…], time 14 day): 11.5 s
- Plat ([…], time 14 day): 126.2 x10_4/uL
- RBC ([…], time 14 day): 680.2 x10_4/ul
- Ret ([…], time 14 day): 3.6%
- WBC ([…], time 14 day): 124.2 x10_2/uL
- APTT ([…], time 28 day): 16 s
- Bas ([…], time 28 day): 0%
- Eos ([…], time 28 day): 1%
- Fbg ([…], time 28 day): 242.4 mg/dL
- Hb ([…], time 28 day): 14.6 g/dL
- Ht ([…], time 28 day): 44%
- Lym ([…], time 28 day): 75.2%
- MCH ([…], time 28 day): 19.5 pg
- MCHC ([…], time 28 day): 33.2%
- MCV ([…], time 28 day): 58.9 fL
- Mono ([…], time 28 day): 7.6%
- Neu ([…], time 28 day): 16.4%
- PT ([…], time 28 day): 11.7 s
- Plat ([…], time 28 day): 120.2 x10_4/uL
- RBC ([…], time 28 day): 747.6 x10_4/ul
- Ret ([…], time 28 day): 2.6%
- WBC ([…], time 28 day): 114.8 x10_2/uL
- KIDNEY_TOTAL ([…], time 7 day): 0.7 g
- KIDNEY_TOTAL ([…], time 14 day): 0.9 g
- KIDNEY_TOTAL ([…], time 28 day): 0.9 g
- LIVER ([…], time 7 day): 12.9 g
- LIVER ([…], time 14 day): 15.7 g
- LIVER ([…], time 28 day): 17.1 g
- A/G ([…], time 7 day): 2
- ALP ([…], time 7 day): 1306.8 IU/L
- ALT ([…], time 7 day): 33.2 IU/L
- AST ([…], time 7 day): 58.8 IU/L
- BUN ([…], time 7 day): 18.2 mg/dL
- CRE ([…], time 7 day): 0.5 mg/dL
- Ca ([…], time 7 day): 19.5 mg/dL
- Cl ([…], time 7 day): 104.8 meq/L
- DBIL ([…], time 7 day): 0.01 mg/dL
- GLC ([…], time 7 day): 181.4 mg/dL
- IP ([…], time 7 day): 7.1 mg/dL
- K ([…], time 7 day): 4.5 meq/L
- LDH ([…], time 7 day): 79 IU/L
- Na ([…], time 7 day): 140 meq/L
- PL ([…], time 7 day): 148.6 mg/dL
- RALB ([…], time 7 day): 3.8 g/dL
- TBIL ([…], time 7 day): 0.028 mg/dL
- TC ([…], time 7 day): 76.6 mg/dL
- TG ([…], time 7 day): 138.8 mg/dL
- TP ([…], time 7 day): 5.7 g/dL
- gamma-GTP ([…], time 7 day): 0.2 IU/L
- A/G ([…], time 14 day): 2.1
- ALP ([…], time 14 day): 1411 IU/L
- ALT ([…], time 14 day): 32.8 IU/L
- AST ([…], time 14 day): 62.4 IU/L
- BUN ([…], time 14 day): 19 mg/dL
- CRE ([…], time 14 day): 0.4 mg/dL
- Ca ([…], time 14 day): 11.1 mg/dL
- Cl ([…], time 14 day): 106 meq/L
- DBIL ([…], time 14 day): 0.01 mg/dL
- GLC ([…], time 14 day): 186.4 mg/dL
- IP ([…], time 14 day): 7.2 mg/dL
- K ([…], time 14 day): 4.5 meq/L
- LDH ([…], time 14 day): 65 IU/L
- Na ([…], time 14 day): 143 meq/L
- PL ([…], time 14 day): 159.4 mg/dL
- RALB ([…], time 14 day): 3.9 g/dL
- TBIL ([…], time 14 day): 0.036 mg/dL
- TC ([…], time 14 day): 76.4 mg/dL
- TG ([…], time 14 day): 186.4 mg/dL
- TP ([…], time 14 day): 5.8 g/dL
- gamma-GTP ([…], time 14 day): 1 IU/L
- A/G ([…], time 28 day): 1.9
- ALP ([…], time 28 day): 1035.6 IU/L
- ALT ([…], time 28 day): 29.2 IU/L
- AST ([…], time 28 day): 55 IU/L
- BUN ([…], time 28 day): 18.4 mg/dL
- CRE ([…], time 28 day): 0.4 mg/dL
- Ca ([…], time 28 day): 10.7 mg/dL
- Cl ([…], time 28 day): 105 meq/L
- DBIL ([…], time 28 day): 0.012 mg/dL
- GLC ([…], time 28 day): 183 mg/dL
- IP ([…], time 28 day): 6.1 mg/dL
- K ([…], time 28 day): 4.4 meq/L
- LDH ([…], time 28 day): 68.8 IU/L
- Na ([…], time 28 day): 139.8 meq/L
- PL ([…], time 28 day): 144.8 mg/dL
- RALB ([…], time 28 day): 3.9 g/dL
- TBIL ([…], time 28 day): 0.036 mg/dL
- TC ([…], time 28 day): 73.2 mg/dL
- TG ([…], time 28 day): 162 mg/dL
- TP ([…], time 28 day): 5.9 g/dL
- gamma-GTP ([…], time 28 day): 0.4 IU/L
